What is called EC50 is the concentration that produces a half-maximal response.

In patent US11897851B2, “Heterocyclic GLP-1 agonists” (Gasherbrum Bio, Inc., priority 2021, dated 2024) one finds EC50 data, which are given here for 24 compounds.

Each structure is given as a SMILES string.

The assay has as its target T1, GLP-1 Receptor (Homo sapiens, UniProt P43220).
T1 construct: host or cells: HEK293/GLP1R/CRE-LUC (HEK293/CRE-Luc stably expressing the GLP-1 receptor)
Nature of the assay: GLP-1R agonist cAMP stimulation assay (HEK293/GLP1R/CRE-LUC cells, Cisbio cAMP dynamic 2 kit).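 Also: compounds tested in half-log serial dilution, cAMP detected with cAMP-d2 and anti-cAMP cryptate antibody reagents after 1 h at room temperature.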 As to conditions: HEK293/CRE-Luc cell line stably expressing the GLP-1 Receptor; 1000 cells/well; 30 min at 37° C.; 0.5 mM IBMX, 0.1% BSA; read-out: GLP1R cAMP Stimulation DR: EC50. It is filed as cell-based.

T1 sequence (P43220 24-463, species assumed): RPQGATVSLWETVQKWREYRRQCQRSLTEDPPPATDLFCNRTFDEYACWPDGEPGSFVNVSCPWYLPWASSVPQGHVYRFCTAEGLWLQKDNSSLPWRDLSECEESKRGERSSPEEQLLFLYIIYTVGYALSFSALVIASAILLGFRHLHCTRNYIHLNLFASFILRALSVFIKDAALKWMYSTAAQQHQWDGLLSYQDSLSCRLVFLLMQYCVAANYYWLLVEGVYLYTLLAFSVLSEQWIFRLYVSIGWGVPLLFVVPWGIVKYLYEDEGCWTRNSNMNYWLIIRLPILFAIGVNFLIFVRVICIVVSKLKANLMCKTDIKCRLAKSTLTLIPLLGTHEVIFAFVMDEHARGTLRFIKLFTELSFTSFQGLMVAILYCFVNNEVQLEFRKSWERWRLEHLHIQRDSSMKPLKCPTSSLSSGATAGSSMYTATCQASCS

Regarding `CC1(c2ccc(Cl)cc2F)Oc2cccc(C3CCN(Cc4ncc(/C=C/C(=O)O)n4CCOC(F)F)CC3)c2O1` (stereo not drawn) [Compound 168, (E)-3-(2-((4-(2-(4-chloro-2-fluorophenyl)-2-methylbenzo[d][1,3]dioxol-4-yl)piperidin-1-yl)methyl)-1-(2-(difluoromethoxy)ethyl)-1H-imidazol-5-yl)acrylic acid], the EC50 turned out to be 0.046 nM.

`C[C@@H](Cn1c(/C=C/C(=O)O)cnc1CN1CCC(c2cccc3c2O[C@@](C)(c2ccc(Cl)cc2F)O3)CC1)OC(F)F` [Compound 169a, (E)-3-(2-((4-((S)-2-(4-chloro-2-fluorophenyl)-2-methylbenzo[d][1,3]dioxol-4-yl)piperidin-1-yl)methyl)-1-((S)-2-(difluoromethoxy)propyl)-1H-imidazol-5-yl)acrylic acid]: the concentration for a half-maximal effect (EC50) is 0.16 nM.

On to `C[C@H](Cn1c(/C=C/C(=O)O)cnc1CN1CCC(c2cccc3c2O[C@@](C)(c2ccc(Cl)cc2F)O3)CC1)OC(F)F` [Compound 169b, (E)-3-(2-((4-((S)-2-(4-chloro-2-fluorophenyl)-2-methylbenzo[d][1,3]dioxol-4-yl)piperidin-1-yl)methyl)-1-((R)-2-(difluoromethoxy)propyl)-1H-imidazol-5-yl)acrylic acid], for which the EC50 turned out to be 0.015 nM.

Turning to `C[C@@H](Cn1c(/C=C/C(=O)O)cnc1CN1CCC(c2cccc3c2O[C@@](C)(c2ccc(Cl)cc2F)O3)CC1)OC1CC1` [Compound 170a, (E)-3-(2-((4-((S)-2-(4-chloro-2-fluorophenyl)-2-methylbenzo[d][1,3]dioxol-4-yl)piperidin-1-yl)methyl)-1-((S)-2-cyclopropoxypropyl)-1H-imidazol-5-yl)acrylic acid], the EC50 turned out to be 2.5 nM.

Regarding `C[C@H](Cn1c(/C=C/C(=O)O)cnc1CN1CCC(c2cccc3c2O[C@@](C)(c2ccc(Cl)cc2F)O3)CC1)OC1CC1` [Compound 170b, (E)-3-(2-((4-((S)-2-(4-chloro-2-fluorophenyl)-2-methylbenzo[d][1,3]dioxol-4-yl)piperidin-1-yl)methyl)-1-((R)-2-cyclopropoxypropyl)-1H-imidazol-5-yl)acrylic acid], the EC50 was 0.0067 nM.

Turning to `CC1(C)C[C@H](Cn2c(/C=C/C(=O)O)cnc2CN2CCC(c3cccc4c3O[C@@](C)(c3ccc(Cl)cc3F)O4)CC2)CO1` [Compound 171b, (E)-3-(2-((4-((S)-2-(4-chloro-2-fluorophenyl)-2-methylbenzo[d][1,3]dioxol-4-yl)piperidin-1-yl)methyl)-1-(((R)-5,5-dimethyltetrahydrofuran-3-yl)methyl)-1H-imidazol-5-yl)acrylic acid], the EC50 is 17 nM.

As to `CO[C@@H](C)Cn1c(/C=C/C(=O)O)cnc1CN1CCC(c2cccc3c2O[C@@](C)(c2ccc(Cl)cc2F)O3)CC1` [Compound 172a, (E)-3-(2-((4-((S)-2-(4-chloro-2-fluorophenyl)-2-methylbenzo[d][1,3]dioxol-4-yl)piperidin-1-yl)methyl)-1-((S)-2-methoxypropyl)-1H-imidazol-5-yl)acrylic acid], the EC50 was found to be 0.048 nM.

Turning to `CC1(c2ccc(Cl)cc2F)Oc2cccc(C3CCN(Cc4ncc(/C=C/C(=O)O)n4CC4CN(S(C)(=O)=O)C4)CC3)c2O1` (stereo not drawn) [Compound 174, (E)-3-(2-((4-(2-(4-chloro-2-fluorophenyl)-2-methylbenzo[d][1,3]dioxol-4-yl)piperidin-1-yl)methyl)-1-((1-(methylsulfonyl)azetidin-3-yl)methyl)-1H-imidazol-5-yl)acrylic acid], the EC50 was 6.4 nM.

For the compound `CC(=O)N(C)CCn1c(/C=C/C(=O)O)cnc1CN1CCC(c2cccc3c2OC(C)(c2ccc(Cl)cc2F)O3)CC1` (stereo not drawn) [Compound 175, (E)-3-(2-((4-(2-(4-chloro-2-fluorophenyl)-2-methylbenzo[d][1,3]dioxol-4-yl)piperidin-1-yl)methyl)-1-(2-(N-methylacetamido)ethyl)-1H-imidazol-5-yl)acrylic acid], the EC50 worked out at 0.047 nM.

With `CN(CCn1c(/C=C/C(=O)O)cnc1CN1CCC(c2cccc3c2OC(C)(c2ccc(Cl)cc2F)O3)CC1)S(C)(=O)=O` (stereo not drawn) [Compound 176, (E)-3-(2-((4-(2-(4-chloro-2-fluorophenyl)-2-methylbenzo[d][1,3]dioxol-4-yl)piperidin-1-yl)methyl)-1-(2-(N-methylmethylsulfonamido)ethyl)-1H-imidazol-5-yl)acrylic acid], the half-maximal effective concentration (EC50) stood at 0.058 nM.

As to `CC1(c2ccc(Cl)cc2F)Oc2cccc(C3CCN(Cc4ncc(/C=C/C(=O)O)n4CC4CC(O)C4)CC3)c2O1` (stereo not drawn) [Compound 177, (E)-3-(2-((4-(2-(4-chloro-2-fluorophenyl)-2-methylbenzo[d][1,3]dioxol-4-yl)piperidin-1-yl)methyl)-1-((3-hydroxycyclobutyl)methyl)-1H-imidazol-5-yl)acrylic acid], the EC50 stood at 0.18 nM.

For `CC1(c2ccc(Cl)cc2F)Oc2cccc(C3CCN(Cc4ncc(/C=C/C(=O)O)n4C4CC(O)C4)CC3)c2O1` (stereo not drawn) [Compound 178, (E)-3-(2-((4-(2-(4-chloro-2-fluorophenyl)-2-methylbenzo[d][1,3]dioxol-4-yl)piperidin-1-yl)methyl)-1-(3-hydroxycyclobutyl)-1H-imidazol-5-yl)acrylic acid], the EC50 came out at 1.2 nM.

Regarding `CC1(c2ccc(Cl)cc2F)Oc2cccc(N3CCN(Cc4ncc(/C=C/C(=O)O)n4C[C@@H]4CCO4)CC3)c2O1` (stereo partly drawn) [Compound 179, (E)-3-(2-((4-(2-(4-chloro-2-fluorophenyl)-2-methylbenzo[d][1,3]dioxol-4-yl)piperazin-1-yl)methyl)-1-(((S)-oxetan-2-yl)methyl)-1H-imidazol-5-yl)acrylic acid], the EC50 is 0.036 nM.

As for `C[C@H]1CN(c2cccc3c2OC(C)(c2ccc(Cl)cc2F)O3)CCN1Cc1ncc(/C=C/C(=O)O)n1C[C@@H]1CCO1` (stereo partly drawn) [Compound 180, (E)-3-(2-(((2S)-4-(2-(4-chloro-2-fluorophenyl)-2-methylbenzo [d][1,3]dioxol-4-yl)-2-methylpiperazin-1-yl)methyl)-1-(((S)-oxetan-2-yl)methyl)-1H-imidazol-5-yl)acrylic acid], the EC50 was found to be 0.026 nM.

In the case of `CC1(c2ccc(Cl)cc2F)Oc2cccc(C3CCN(Cc4ncc(/C=C/C(=O)O)n4Cc4ccno4)CC3)c2O1` (stereo not drawn) [Compound 181, (E)-3-(2-((4-(2-(4-chloro-2-fluorophenyl)-2-methylbenzo[d][1,3]dioxol-4-yl)piperidin-1-yl)methyl)-1-(isoxazol-5-ylmethyl)-1H-imidazol-5-yl)acrylic acid], the EC50 is 4.1 nM.

As for `CC1(c2ccc(Cl)cc2F)Oc2cccc(C3CCN(Cc4nc(/C=C/C(=O)O)cn4Cc4ccno4)CC3)c2O1` (stereo not drawn) [Compound 182, (E)-3-(2-((4-(2-(4-chloro-2-fluorophenyl)-2-methylbenzo[d][1,3]dioxol-4-yl)piperidin-1-yl)methyl)-1-(isoxazol-5-ylmethyl)-1H-imidazol-4-yl)acrylic acid], the EC50 came out at 93 nM.

Take `CC1(c2ccc(Cl)cc2F)Oc2cccc(C3CCN(Cc4ncc(/C=C/C(=O)O)n4Cc4ncco4)CC3)c2O1` (stereo not drawn) [Compound 183, (E)-3-(2-((4-(2-(4-chloro-2-fluorophenyl)-2-methylbenzo[d][1,3]dioxol-4-yl)piperidin-1-yl)methyl)-1-(oxazol-2-ylmethyl)-1H-imidazol-5-yl)acrylic acid]: the EC50 is 0.015 nM.

On to `CCc1ncoc1Cn1c(/C=C/C(=O)O)cnc1CN1CCC(c2cccc3c2OC(C)(c2ccc(Cl)cc2F)O3)CC1` (stereo not drawn) [Compound 184, (E)-3-(2-((4-(2-(4-chloro-2-fluorophenyl)-2-methylbenzo[d][1,3]dioxol-4-yl)piperidin-1-yl)methyl)-1-((4-ethyloxazol-5-yl)methyl)-1H-imidazol-5-yl)acrylic acid], for which the EC50 worked out at 0.24 nM.

Turning to `CCC(O)Cn1c(/C=C/C(=O)O)cnc1CN1CCC(c2cccc3c2OC(C)(c2ccc(Cl)cc2F)O3)CC1` (stereo not drawn) [Compound 185, (E)-3-(2-((4-(2-(4-chloro-2-fluorophenyl)-2-methylbenzo[d][1,3]dioxol-4-yl)piperidin-1-yl)methyl)-1-(2-hydroxybutyl)-1H-imidazol-5-yl)acrylic acid], the EC50 was found to be 20 nM.

In the case of `O=C(O)/C=C/c1cnc(CN2CCC(c3cccc4c3OC[C@@H](c3ccc(Cl)cc3)O4)CC2)n1Cc1ncco1` [Compound 186a, (R,E)-3-(2-((4-(2-(4-chlorophenyl)-2,3-dihydrobenzo [b][1,4]dioxin-5-yl)piperidin-1-yl)methyl)-1-(oxazol-2-ylmethyl)-1H-imidazol-5-yl)acrylic acid], the EC50 worked out at 0.41 nM.

For the compound `O=C(O)/C=C/c1cnc(CN2CCC(c3cccc4c3OC[C@@H](c3ccc(Cl)cc3)O4)CC2)n1Cc1ccno1` [Compound 187a, (R,E)-3-(2-((4-(2-(4-chlorophenyl)-2,3-dihydrobenzo [b][1,4]dioxin-5-yl)piperidin-1-yl)methyl)-1-(isoxazol-5-ylmethyl)-1H-imidazol-5-yl)acrylic acid], the EC50 is more than 1000 nM.

With `CCc1ncsc1Cn1c(/C=C/C(=O)O)cnc1CN1CCC(c2cccc3c2OC(C)(c2ccc(Cl)cc2F)O3)CC1` (stereo not drawn) [Compound 188, (E)-3-(2-((4-(2-(4-chloro-2-fluorophenyl)-2-methylbenzo[d][1,3]dioxol-4-yl)piperidin-1-yl)methyl)-1-((4-ethylthiazol-5-yl)methyl)-1H-imidazol-5-yl)acrylic acid], the EC50 turned out to be 0.22 nM.

For the compound `Cc1ncsc1Cn1c(/C=C/C(=O)O)cnc1CN1CCC(c2cccc3c2OC(C)(c2ccc(Cl)cc2F)O3)CC1` (stereo not drawn) [Compound 189, (E)-3-(2-((4-(2-(4-chloro-2-fluorophenyl)-2-methylbenzo[d][1,3]dioxol-4-yl)piperidin-1-yl)methyl)-1-((4-methylthiazol-5-yl)methyl)-1H-imidazol-5-yl)acrylic acid], the EC50 was 0.022 nM.

In the case of `Cc1ncoc1Cn1c(/C=C/C(=O)O)cnc1CN1CCC(c2cccc3c2OC(C)(c2ccc(Cl)cc2F)O3)CC1` (stereo not drawn) [Compound 190, (E)-3-(2-((4-(2-(4-chloro-2-fluorophenyl)-2-methylbenzo[d][1,3]dioxol-4-yl)piperidin-1-yl)methyl)-1-((4-methyloxazol-5-yl)methyl)-1H-imidazol-5-yl)acrylic acid], the EC50 is 0.012 nM.
